In data set [1] the test system is β1 cardiac receptors versus β2 tracheal receptors. The data set can be described thus: Cardioselectivity (auricles versus trachea). Particulars: for Cardioselectivity: Table III, from pA2 auricles and trachea; for times more active on β cardiac receptors than on β2 receptors: from difference of pA2 on auricles and trachea; for Cardioselectivity (in words): guinea pig auricles vs trachea. On the set-up: species or system guinea pig. As for the experimental part:
(§1) The effect on β1 cardiac receptors is measured by inhibition of the chronotropic response to noradrenaline of guinea pig auricles and of the inotrope response to isoproterenol of guinea pig left auricles which were electrically stimulated. The cardioselectivity is appreciated by measuring the antagonist effect at the level of β2 receptors of the guinea pig trachea. To this end, a tracheal chain is contracted by a maximum concentration of histamine and inhibition of relaxation by isoproterenol is measured. The values calculated for cardioselectivity are obtained by considering the difference between pA2 values of the chronotrope response and the relaxation on the one hand (1st column) and of the inotrope response and relaxation on the other hand (2nd column). For these various experiences, pA2 is calculated according to the Van Rossum method (Arch. Inern. Pharmacodyn., 143, 299-330, 1963).

For data set [2], the system named is isolated guinea pig auricles. The data set can be described thus: Chronotrope effect of the substance on isolated auricles. Particulars: 10^-6 M, 20 minutes, Tyrode, 29° C. As for the experimental part: The β-lytic effect was searched on the chronotropic response to noradrenaline of isolated guinea pig auricles. Auricles were incubated for 20 minutes in a Tyrode solution at 29° C. in the presence of the substance to be tested at the concentration of 10^-6 M. A positive (+) or negative (-) chronotrope effect of the substance was noted using the following scores: […]

Data set [3] has as its system chronotropic response to noradrenaline of isolated guinea pig auricles. The data set can be described thus: β-lytic effect on the chronotropic response to noradrenaline of isolated auricles. As for the experimental part: The β-lytic effect was searched on the chronotropic response to noradrenaline of isolated guinea pig auricles. Auricles were incubated for 20 minutes in a Tyrode solution at 29° C. in the presence of the substance to be tested at the concentration of 10^-6 M. A positive (+) or negative (-) chronotrope effect of the substance was noted using the following scores:
Then, the chronotrope effect of cumulative increasing concentrations of noradrenaline was recorded. The pD2 (-log CE50) value was calculated. A score of β-lytic activity of the substance was given as follows:
If the score at concentration of 10^-6 M was 3 or 4, the effect of the substance was examined at concentration of 10^-7 M and a score was recorded according to the same procedure.

The nature of data set [4]: LD50 in mice, oral (Lichtfield and Wilcoxon method). Particulars: mouse, in vivo, po, read-out: LD50. The data set is classed as in vivo. As for the experimental part: LD50 were determined according to the Lichtfield and Wilcoxon method (J. Pharmacol. Exp. Ther. 96, 99, 1949) and expressed in mg/kg. The products were administered to mice orally.
Data set [5] can be described thus: Antihypertensive activity, oral, unanesthetized spontaneously hypertensive rats. The data set is classed as in vivo. Particulars: 60 mg/kg oral; for Antihypertensive activity (score): spontaneously hypertensive rats; for Antihypertensive activity (index): systolic pressure difference (cmHg) every 30 min multiplied by time coefficient 1 to 6. As for the experimental part:
[…] Only rats having a systolic pressure of 180 to 220 mm Hg are used. Two rats are used by product. The treatments are administered without the knowledge of the person making the measure.
The antihypertensive effects were recorded according to a score followed by an index. The scoring system is as follows.
The index is calculated by multiplying the systolic pressure difference (cmHg) measured every 30 minutes after the treatment, by a coefficient of 1 to 6 corresponding to times of 30 to 180 minutes.

For data set [6], the target named is T1, β1 cardiac receptors (Cavia porcellus, UniProt H0W3H1).
T1 construct: chronotropic response to noradrenaline of guinea pig auricles; from tissue; host or cells: guinea pig auricles (chronotropic response); electrically stimulated guinea pig left auricles (inotropic response)
T1 sequence (H0W3H1 1-470): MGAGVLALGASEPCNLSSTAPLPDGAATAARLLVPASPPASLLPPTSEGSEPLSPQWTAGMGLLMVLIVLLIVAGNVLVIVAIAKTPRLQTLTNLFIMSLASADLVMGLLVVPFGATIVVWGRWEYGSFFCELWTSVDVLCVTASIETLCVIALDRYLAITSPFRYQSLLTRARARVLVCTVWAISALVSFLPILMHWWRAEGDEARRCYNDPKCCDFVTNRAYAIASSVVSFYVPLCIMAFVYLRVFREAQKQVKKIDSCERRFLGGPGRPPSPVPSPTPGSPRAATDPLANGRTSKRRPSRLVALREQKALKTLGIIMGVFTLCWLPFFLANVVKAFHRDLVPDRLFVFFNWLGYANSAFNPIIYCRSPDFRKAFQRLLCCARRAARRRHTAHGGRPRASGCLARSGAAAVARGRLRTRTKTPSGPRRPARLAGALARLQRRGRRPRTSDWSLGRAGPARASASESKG
The data set can be described thus: β-lytic activity: inhibition of chronotropic response to noradrenaline of auricles (pA2). Set-up: species or system guinea pig. As for the experimental part: as §1, with “column).” for “column). For these various experiences, pA2 is calculated according to the Van Rossum method (Arch. Inern. Pharmacodyn., 143, 299-330, 1963).”

Data set [7] has as its system guinea pig ileum contractions induced by histamine. The data set can be described thus: Antispasmodic activity against ileum contractions induced by histamine. As for the experimental part:
(§2) The antispasmodic activity of the studied substances was examined against guinea pig ileum contractions induced by histamine and acetylcholine.
(§3) These experiences allow to make it obvious an antihistaminic, anticholinergic or musculotrope activity. The response to the contracting agent (sub-maximum concentration) is obtained every 5 minutes before and after injection of increasing concentrations of tested products (10^-7 M to 10^-4 M). The inhibition percentage under the influence of tested products is calculated and the theoretical concentration giving 50% of inhibition is graphically determined for each experience. These values are expressed in -log CI50 (M).

Data set [8] deals with peripheral β2 receptors. The data set can be described thus: Cardioselectivity in vivo, anesthetised dog: peripheral β2 receptors. Particulars: 30 μg/kg i.v.
In data set [9] the target is T2, β2 receptors of the guinea pig trachea (Cavia porcellus, UniProt Q8K4Z4).
T2 construct: β2 receptors of the guinea pig trachea; from tissue; host or cells: guinea pig tracheal chain contracted by histamine
T2 sequence (Q8K4Z4 whole entry): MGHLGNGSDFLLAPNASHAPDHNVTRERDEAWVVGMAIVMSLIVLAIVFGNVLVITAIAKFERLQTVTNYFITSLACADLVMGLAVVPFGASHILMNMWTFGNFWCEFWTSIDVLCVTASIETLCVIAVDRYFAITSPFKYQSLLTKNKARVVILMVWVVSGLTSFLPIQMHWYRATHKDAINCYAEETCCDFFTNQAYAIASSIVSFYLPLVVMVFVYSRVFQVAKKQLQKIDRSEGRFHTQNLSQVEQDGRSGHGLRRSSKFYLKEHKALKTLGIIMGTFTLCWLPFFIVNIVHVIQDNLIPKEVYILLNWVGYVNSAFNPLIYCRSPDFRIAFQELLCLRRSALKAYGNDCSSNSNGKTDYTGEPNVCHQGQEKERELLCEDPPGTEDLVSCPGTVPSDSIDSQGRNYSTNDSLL
The data set can be described thus: Antagonist effect on relaxation of trachea by isoproterenol (pA2). Particulars: histamine-contracted tracheal chain, read-out: β-lytic activity, pA2 trachea relaxation (converted). As for the experimental part: as §1, with “column).” for “column). For these various experiences, pA2 is calculated according to the Van Rossum method (Arch. Inern. Pharmacodyn., 143, 299-330, 1963).”

Data set [10] concerns platelet agglutination. The data set can be described thus: Inhibition of platelet agglutination in plasma (turbidimetric method, Thrombofax). Particulars: plasma rich in platelets, preincubated 4 minutes. The data set is classed as cell-based. As for the experimental part: The measure of platelet agglutination inhibition was made according to the turbidimetric method of G. V. R. Born and M. J. Cross (J. Physiol., 168, 178, […]). The plasma rich in platelets was preincubated for 4 minutes before addition of the inducing agent, namely Thrombofax. The variations of turbidity were recorded for a period of 10 minutes with a "Chronolog" agglutinometer. The inhibition of the maximum amplitude of agglutination was measured.

Data set [11] concerns cardiac receptors. The data set can be described thus: Cardioselectivity in vivo, anesthetised dog: cardiac receptors. Particulars: 30 μg/kg i.v.
Data set [12] addresses T1, β1 cardiac receptors. The data set can be described thus: β-lytic activity: inhibition of inotrope response to isoproterenol of electrically stimulated left auricles (pA2). Set-up: species or system guinea pig. As for the experimental part:
as §1, with “column).” for “column). For these various experiences, pA2 is calculated according to the Van Rossum method (Arch. Inern. Pharmacodyn., 143, 299-330, 1963).”

The subject of data set [13] is guinea pig ileum contractions induced by acetylcholine. The data set can be described thus: Antispasmodic activity against ileum contractions induced by acetylcholine. As for the experimental part:
as §2, §3

Data set [14] relates to tachycardia caused by isoprotenenol. The data set can be described thus: β-lytic activity in vigile rat (antagonism of tachycardia caused by isoproterenol). In kind it is in vivo. Particulars: 10 mg/kg orally; isoproterenol 0.1 mg/kg transcutaneously.
Data set [15] is described as follows: Peripheral vasodilator activity, anesthetized dog, femoral arterial circulation. In kind it is in vivo. Particulars: 30 μg/kg injected directly. As for the experimental part:
The peripheral vasodilator activity was measured on anesthetized dog at the level of femoral arterial circulation. To this end, the femoral artery the collaterals of which have been ligated is perfused at constant rate with blood taken from aorta. The perfusion pressure measured at the level of the femoral artery thus varies as a function of the resistance of the perfused area. The tested products and the corresponding solvents are directly injected at the dose of 30 μg/kg. The cardiac output being maintained constant, a vasodilation is thus measured by a decrease of the perfusion pressure. The latter is scored in comparison with the action of papaverine, considered as a reference and injected one time by group of 4 products. When interesting, the products are tested with other doses under the same conditions.
The vasodilator activity is appreciated as follows: […]

[16] abbreviates: noradrenaline, read-out: β-lytic activity, pA2 auricles chronotrope response (converted).
[17] abbreviates: isoproterenol, electrically stimulated left auricles, read-out: β-lytic activity, pA2 auricles inotrope response (converted).

Structures are written as SMILES. Entries after “also recorded” stand apart in the source; their conditions may differ.

Regarding `CC(C)NCC(O)COc1ccc(-c2nc3ccccc3[nH]2)cc1` (stereo not shown) [Compound 1, 2-[4-(3-isopropylamino-2-hydroxypropoxy)phenyl]benzimidazole], in [1], the Cardioselectivity is given as 1.73. Besides, the “times more active on β cardiac receptors than on β2 receptors” value (from here on “times more active”) in [1] amounted to 2140 times. Further, in data set [1], the “Cardioselectivity (in words)” value is “important cardioselectivity; also recorded: much higher than that of metopropol and atenolol”. Moreover, the “Chronotrope effect (score)” value in [2] is 0 (if the frequency modification was comprised between +6 and -6). Further, the “β-lytic effect (score)” value in data set [3] (10^-6 M) is 3 (if 6.00≥pD2 ≥5.51); in data set [3] (10^-7 M) it was 2 (if 6.40≥pD2 ≥6.01). Besides, the LD50 in data set [4] amounted to 2300 mg/kg. Further, in [5], the “Antihypertensive activity (score)” value is “++++ (reduction>50 mm Hg)”. Besides, the “Antihypertensive activity (index)” value in data set [5] came to 174. The “Activity on β cardiac receptors (in words)” value in data set [6] was “active β-agents on β cardiac receptors”. The Kb is 13.5 nM in data set [6] (setting [16]), 28800 nM in [9] and 35.5 nM in data set [12] (setting [17]). Moreover, the “Antispasmodic activity, Hist. (-log CI50 (M))” value in data set [7] is on record as 5.18 -log CI50 (M). For the same compound, the “Effect on stimulation of peripheral β2 receptors” value in data set [8] is listed as “without affecting that of peripheral β2 receptors”. The “Inhibition of platelet agglutination” value in data set [10] is “active”. In addition, the “Blocking of stimulation of cardiac receptors” value in [11] is given as “blocks stimulation of cardiac receptors”. For the same compound, the “Antispasmodic activity, Ac. Chol. (-log CI50 (M))” value in [13] is 5.21 -log CI50 (M). Further, in data set [14], the “β-lytic activity in vigile rat” value was “demonstrated”.

Regarding `COc1ccc(CCNCC(O)COc2ccc(-c3nc4ccccc4[nH]3)cc2)cc1OC` (stereo not shown) [Compound 5, 2-[[4-{3-[2-(3,4-dimethoxyphenyl)ethylamino]-2-hydroxypropoxy}phenyl]]benzimidazole], in data set [1], the Cardioselectivity is on record as more than 1.91; the “times more active” value is recorded as “more than 5600 times”; the “Cardioselectivity (in words)” value is “important cardioselectivity; also recorded: much higher than that of metopropol and atenolol”. In data set [2], the “Chronotrope effect (score)” value is 0 (if the frequency modification was comprised between +6 and -6). Also, the “β-lytic effect (score)” value in data set [3] (10^-6 M) is 3 (if 6.00≥pD2 ≥5.51). Moreover, the “β-lytic effect (score)” value in data set [3] (10^-7 M) is 2 (if 6.40≥pD2 ≥6.01). In addition, in data set [4], the LD50 was more than 3000 mg/kg. Also, in data set [5], the “Antihypertensive activity (score)” value was “+++ (reduction of 30 to 50 mm Hg)” and the “Antihypertensive activity (index)” value stood at 34. In addition, the “Activity on β cardiac receptors (in words)” value in [6] is “active β-agents on β cardiac receptors”. In addition, the Kb in data set [6] (setting [16]) is 21.4 nM. The “Antispasmodic activity, Hist. (-log CI50 (M))” value in data set [7] is given as 5.80 -log CI50 (M). Besides, in [9], the Kb is more than 100000 nM. Also, in [12] (setting [17]), the Kb is 39.8 nM. In data set [13], the “Antispasmodic activity, Ac. Chol. (-log CI50 (M))” value was 5.69 -log CI50 (M).

Take `CCCCCCCCNCC(O)COc1ccc(-c2nc3ccccc3[nH]2)cc1` (stereo not shown) [Compound 2, 2-[4-(3-n-octylamino-2-hydroxypropoxy)phenyl]benzimidazole]: in [4], the median lethal dose (LD50) was more than 300 mg/kg. The “Antihypertensive activity (score)” value in data set [5] is 0 (reduction <10 mm Hg). Moreover, the Peripheral vasodilator activity result in data set [15] is “active”. Also, the “Antispasmodic activity, Hist. (-log CI50 (M))” value in data set [7] is 6.46 -log CI50 (M). Also, the “Inhibition of platelet agglutination” value in data set [10] is reported as “active”. In [13], the “Antispasmodic activity, Ac. Chol. (-log CI50 (M))” value was 6.64 -log CI50 (M).

Consider `CC(C)NCC(O)COc1ccc(CC(N)=O)cc1` (stereo not shown) [Atenolol, reference compound], for which the “times more active” value in data set [1] came out at 50 times. Further, the Kb in data set [6] is 44.7 nM; in [12], 129 nM.

Source of the values: US4338330A, “Benzimidazole derivatives, their use, and compositions containing these derivatives” (Continental Pharma, priority 1979, dated 1982).
